Drawing on ChEMBL document CHEMBL1138077, “Arylpiperazines with N-acylated amino acids as 5-HT1A receptor ligands” (Bioorg Med Chem Lett, 2006), this text covers Ki for 24 compounds.

The target of the test is T1, 5-hydroxytryptamine receptor 1A (Homo sapiens, UniProt P08908).
T1 sequence (P08908 whole entry): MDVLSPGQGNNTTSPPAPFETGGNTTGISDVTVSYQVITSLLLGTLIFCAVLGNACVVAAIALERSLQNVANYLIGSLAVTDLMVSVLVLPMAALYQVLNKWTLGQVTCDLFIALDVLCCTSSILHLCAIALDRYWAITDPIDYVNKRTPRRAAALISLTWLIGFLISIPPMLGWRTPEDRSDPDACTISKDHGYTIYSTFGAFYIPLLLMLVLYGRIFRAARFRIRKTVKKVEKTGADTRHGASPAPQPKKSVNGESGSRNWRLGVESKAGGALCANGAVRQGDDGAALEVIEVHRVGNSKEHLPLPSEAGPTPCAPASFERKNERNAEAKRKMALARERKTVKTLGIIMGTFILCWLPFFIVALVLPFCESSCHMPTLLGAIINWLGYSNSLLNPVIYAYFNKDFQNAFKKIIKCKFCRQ
The test can be described thus: Affinity for 5HT1A receptor.
With `COc1ccccc1N1CCN(CCCCNC(=O)[C@@H]2CCC(=O)N2C(=O)C2CCCCC2)CC1`, the Ki came to 17 nM. For `COc1ccccc1N1CCN(CCCCNC(=O)[C@H](CC(N)=O)NC(=O)C2CCCCC2)CC1` the value was 24 nM; for `COc1ccccc1N1CCN(CCCCN2C(=O)C[C@H](NC(=O)C3CCCC3)C2=O)CC1`, 40 nM. Take `COc1ccccc1N1CCN(CCCN2C(=O)C[C@H](NC(=O)C3CCCC3)C2=O)CC1`: the Ki came out at 170 nM. `COc1ccccc1N1CCN(CCCCNC(=O)[C@H](CC(N)=O)NC(=O)CC2CC3CCC2C3)CC1` (some centres undefined) registered a Ki of 11 nM. The compound `COc1ccccc1N1CCN(CCCCNC(=O)[C@@H]2CCCN2C(=O)C2CCCCC2)CC1` returned a Ki of 27 nM. The compound `COc1ccccc1N1CCN(CCCN2C(=O)C[C@H](NC(C)=O)C2=O)CC1` yielded a Ki of 480 nM. For `COc1ccccc1N1CCN(CCCCN2C(=O)C[C@H](NC(=O)C34CC5CC(CC(C5)C3)C4)C2=O)CC1`, the affinity, expressed as Ki, was 15 nM. Compound `COc1ccccc1N1CCN(CCCCN2C(=O)C[C@H](NC(=O)CC3CC4CCC3C4)C2=O)CC1` (some centres undefined) had a Ki of 18 nM. This Ki and that of the compound before are within 1.5-fold of each other.

On to `COc1ccccc1N1CCN(CCCN2C(=O)C[C@H](NC(=O)CC3CC4CCC3C4)C2=O)CC1` (some centres undefined), for which the affinity corresponds to a Ki of 40 nM. Turning to `COc1ccccc1N1CCN(CCCN2C(=O)C[C@H](NC(=O)C34CC5CC(CC(C5)C3)C4)C2=O)CC1`, the affinity corresponds to a Ki of 63 nM. The compound `COc1ccccc1N1CCN(CCCCN2C(=O)C[C@H](NC(C)=O)C2=O)CC1` yielded a Ki of 69 nM.

Take `COc1ccccc1N1CCN(CCCCN2C(=O)C[C@@H](NC(=O)C34CC5CC(CC(C5)C3)C4)C2=O)CC1`: the Ki stood at 9 nM. Compared with the last compound, the Ki is about 7.7-fold lower. Regarding `COc1ccccc1N1CCN(CCCCN2C(=O)C[C@@H](NC(=O)C3CCCCC3)C2=O)CC1`, the Ki amounted to 17 nM. As for `COc1ccccc1N1CCN(CCCCNC(=O)[C@H]2CCCN2C(=O)CC2CC3CCC2C3)CC1` (some centres undefined), affinity was put at a Ki of 17 nM. Turning to `COc1ccccc1N1CCN(CCCN2C(=O)C[C@H](NC(=O)C3CCCCC3)C2=O)CC1`, the affinity, expressed as Ki, was 230 nM. Against the preceding compound, the Ki is about 14-fold higher. For `COc1ccccc1N1CCN(CCCCNC(=O)[C@H]2CCCN2C(=O)C23CC4CC(CC(C4)C2)C3)CC1` the value was 25 nM. `COc1ccccc1N1CCN(CCCCNC(=O)[C@@H]2CCCN2C(=O)C23CC4CC(CC(C4)C2)C3)CC1` had a Ki of 4 nM. Consider `COc1ccccc1N1CCN(CCCCN2C(=O)C[C@H](NC(=O)C3CCCCC3)C2=O)CC1`, for which the Ki is 29 nM. This Ki lies about 7.2-fold higher than the previous one.

Take `COc1ccccc1N1CCN(CCCN2C(=O)C[C@H](NC(=O)c3ccccc3)C2=O)CC1`: the Ki came to 260 nM. Take `COc1ccccc1N1CCN(CCCCNC(=O)[C@@H]2CCC(=O)N2C(=O)CC2CC3CCC2C3)CC1` (some centres undefined): the Ki was found to be 12 nM. For `COc1ccccc1N1CCN(CCCCNC(=O)[C@@H]2CCCN2C(=O)CC2CC3CCC2C3)CC1` (some centres undefined) the value was 12 nM; for `COc1ccccc1N1CCN(CCCCN2C(=O)C[C@H](NC(=O)c3ccccc3)C2=O)CC1`, 50 nM. `COc1ccccc1N1CCN(CCCCN2C(=O)C[C@@H](NC(=O)CC3CC4CCC3C4)C2=O)CC1` (stereo in doubt; 9'{5,5}) returned a Ki of 17 nM. Compared with the last compound, the Ki is about 2.9-fold lower.
